# Marks after values point to notes of the source that are not given here.
# Legend:
# CYP3A4 [1] = biological target: T1, CYP3A4 (Homo sapiens, UniProt P08684); test: CYP reversibility study (pre-incubation with or without NADPH), 3A4; assay type: in vitro ADME; conditions: for mechanism of CYP3A4 inhibition: NADPH-dependent shift of IC50
# Protocol: Given the similar IC50 values for 1 and 4 against CYP3A4, we were curious to determine whether 4 is an irreversible inhibitor of this enzyme, as is the case for 1 [30].
# (§1) CYP Inhibition and reversibility studies
# (§2) Mammalian CYP inhibition values and reversibility studies were conducted by WuXi AppTech
# (§3) (Tianjin, China 300457) according to standard protocols. […]
# [2] = test system: T. cruzi parasites in J774 macrophage host cells; test: Minimum trypanocidal concentration (MTC) assay; assay type: cell-based, Trypanosoma cruzi
# CYP3A4 [3] = biological target: T1, CYP3A4; test: Mammalian CYP inhibition panel, 3A4; assay type: in vitro ADME
# [4] = biological target: T2, ≈35 kDa host-cell protein (cathepsin B) (Mus musculus, UniProt P10605); test: Competitive labeling of host cell (C2C12) proteins with probe 9; assay type: cell-based; conditions: C2C12 cells
# T2 construct: endogenous in cells; host or cells: C2C12 mouse myoblasts
# Protocol: The discovery of a potential mammalian off-target of probe 9 (and presumably also of 1) was of considerable interest, so we explored this finding further. To determine if this protein was also a target of 1 and 4, we conducted competition experiments in C2C12 cells. […]
# Cellular labeling assay and “click” chemistry: C2C12 cells (1.5 × 10^6 cells) were pre-treated with competitor compounds in culture media (1 mL, DMEM with 10% FBS) for 1 hour at 37 °C.
# Then additional competitor compound and 9 (2 µM) were added in culture media (1 mL), and the cells were incubated for an additional hour. The cells were then pelleted, washed with phosphate-buffered saline pH 7.4 (2 × 1 mL), and lysed with 1% SDS in phosphate-buffered saline (400 µL). The denatured lysates were sonicated to reduce viscosity, centrifuged to give pellets of the insoluble material, and normalized for total protein content. The normalized lysates (22 µL, 3 mg/mL) were mixed with TAMRA azide 10 (0.5 µL, 5 mM), TCEP (0.5 µL, 50 mM, pH ~7.0), TBTA ligand in 1:4 DMSO/t-butyl alcohol (1.5 µL, 1 mM), and CuSO4 (0.5 µL, 50 mM).
# Reactions were incubated at room temperature for one hour and then resolved by SDS-PAGE.
# The resulting gel was scanned for fluorescence (Typhoon Imaging System, Molecular Dynamics) and coomassie stained. […]
# TcCYP51 = TcCYP51 (Trypanosoma cruzi, UniProt Q7Z1V1); test: biochemical; conditions: UV-vis binding assay; lower limit of KD ~5 nM; read-out: TcCYP51 activity in vitro KD
# CYP3A4 [5] = biological target: T1, CYP3A4; set-up: method as in PMID 11038163; conditions: cited from earlier work
# CYP2C19 [6] = biological target: T3, CYP2C19 (Homo sapiens, UniProt P33261); test: Mammalian CYP inhibition panel, 2C19; assay type: in vitro ADME
# CYP1A2 = biological target: T4, CYP1A2 (Homo sapiens, UniProt P05177); test: Mammalian CYP inhibition panel, 1A2; assay type: in vitro ADME
# T4 sequence (P05177 1-516): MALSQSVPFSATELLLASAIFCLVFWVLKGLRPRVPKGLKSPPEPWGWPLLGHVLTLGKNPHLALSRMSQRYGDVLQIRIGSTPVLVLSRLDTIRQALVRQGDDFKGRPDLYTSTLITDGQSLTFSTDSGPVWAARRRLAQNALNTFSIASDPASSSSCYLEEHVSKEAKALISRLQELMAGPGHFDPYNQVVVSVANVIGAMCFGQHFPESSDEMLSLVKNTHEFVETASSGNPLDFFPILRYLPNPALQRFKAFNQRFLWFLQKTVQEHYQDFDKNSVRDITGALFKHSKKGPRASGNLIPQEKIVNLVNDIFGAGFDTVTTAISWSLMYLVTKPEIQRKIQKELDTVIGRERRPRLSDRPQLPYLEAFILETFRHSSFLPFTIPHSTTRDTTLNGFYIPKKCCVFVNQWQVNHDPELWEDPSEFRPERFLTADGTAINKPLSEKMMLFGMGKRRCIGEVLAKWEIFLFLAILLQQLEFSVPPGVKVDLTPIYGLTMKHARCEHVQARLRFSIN
# CYP2C19 [7] = biological target: T3, CYP2C19; test: CYP reversibility study (pre-incubation with or without NADPH), 2C19; assay type: in vitro ADME; conditions: for mechanism of CYP2C19 inhibition: NADPH-dependent shift of IC50
# Protocol: as §1, §2, §3
# [8] = test system: T. cruzi parasites in C2C12 host cells; test: High-content imaging-based screening (HCS) assay; assay type: cell-based; conditions: Trypanosoma cruzi; reduces parasite load in C2C12 cells by 90% relative to untreated controls; read-out: T. cruzi growth inhibition HCS EC90
# CYP2D6 = CYP2D6 (Homo sapiens, UniProt P10635); test: Mammalian CYP inhibition panel, 2D6; assay type: in vitro ADME
# [9] = test system: TcCYP51 (ergosterol biosynthesis) in intracellular T. cruzi parasites; test: Ergosterol biosynthesis / sterol composition of intracellular T. cruzi by GC/MS; assay type: cell-based, Trypanosoma cruzi; set-up: key to TcCYP51 cellular activity (Y/N): Y: Compound affects ergosterol biosynthesis at indicated concentration as determined by GC/MS analysis; cellular activity (Y/N, conc.); conditions: for effect on sterol (lipid) composition of intracellular T. cruzi: concentrations below MTC
# P-glycoprotein (P-gp) = conditions: stated as known, no reference given; cited from earlier work
# cruzain = cruzain (Trypanosoma cruzi, UniProt P25779); test: biochemical; conditions: for IC50: kinact/Ki, read-out: cruzain activity (n.a. = not active)
# CYP2C9 = CYP2C9 (Homo sapiens, UniProt P11712); test: Mammalian CYP inhibition panel, 2C9; assay type: in vitro ADME
# [10] = test system: CYP1A2, CYP2C9, CYP2C19, CYP2D6, CYP3A4 (average over the panel of mammalian CYP enzymes); test: Mammalian CYP inhibition panel, average over panel; assay type: in vitro ADME; conditions: human; average of 1A2, 2C9, 2C19, 2D6, 3A4; read-out: average IC50 across the CYP panel
# [11] = clears J774 host cells of parasites at day 40, following 28 days of treatment
# [12] = pretreatment with 10 μM for one hour
# [13] = affects ergosterol biosynthesis at 2.0 μM
# [14] = affects ergosterol biosynthesis at 0.1 μM
# [15] = pre-incubation at either 1 μM or 10 μM for one hour
# T3 sequence (P33261 whole entry): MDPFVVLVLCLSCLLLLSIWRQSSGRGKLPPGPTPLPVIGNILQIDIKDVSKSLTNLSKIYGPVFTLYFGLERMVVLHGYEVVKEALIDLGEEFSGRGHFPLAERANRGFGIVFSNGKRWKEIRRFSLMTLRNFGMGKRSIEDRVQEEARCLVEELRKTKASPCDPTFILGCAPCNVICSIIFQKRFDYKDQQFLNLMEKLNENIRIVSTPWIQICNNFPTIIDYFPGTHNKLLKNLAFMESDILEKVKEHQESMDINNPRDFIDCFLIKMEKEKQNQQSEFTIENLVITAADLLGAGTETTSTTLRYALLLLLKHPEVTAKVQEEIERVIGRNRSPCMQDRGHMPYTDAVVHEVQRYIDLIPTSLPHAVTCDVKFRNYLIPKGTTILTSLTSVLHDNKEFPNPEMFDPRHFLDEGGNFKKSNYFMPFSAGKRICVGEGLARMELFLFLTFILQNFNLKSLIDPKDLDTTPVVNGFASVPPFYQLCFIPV
# TcCYP51, sequence (Q7Z1V1 whole entry): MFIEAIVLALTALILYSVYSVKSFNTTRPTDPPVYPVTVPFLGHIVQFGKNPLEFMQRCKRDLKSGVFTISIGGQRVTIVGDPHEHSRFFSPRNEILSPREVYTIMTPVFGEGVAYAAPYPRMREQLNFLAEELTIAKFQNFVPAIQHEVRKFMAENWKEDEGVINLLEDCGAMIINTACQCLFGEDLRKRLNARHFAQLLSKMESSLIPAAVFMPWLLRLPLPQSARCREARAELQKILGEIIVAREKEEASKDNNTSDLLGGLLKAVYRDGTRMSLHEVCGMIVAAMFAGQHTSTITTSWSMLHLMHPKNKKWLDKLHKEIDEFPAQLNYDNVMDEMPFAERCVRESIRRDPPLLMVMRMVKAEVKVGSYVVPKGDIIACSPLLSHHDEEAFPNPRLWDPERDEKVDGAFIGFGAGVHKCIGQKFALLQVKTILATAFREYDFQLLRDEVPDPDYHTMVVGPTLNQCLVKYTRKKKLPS
# cruzain, sequence (P25779 123-337 limits assumed): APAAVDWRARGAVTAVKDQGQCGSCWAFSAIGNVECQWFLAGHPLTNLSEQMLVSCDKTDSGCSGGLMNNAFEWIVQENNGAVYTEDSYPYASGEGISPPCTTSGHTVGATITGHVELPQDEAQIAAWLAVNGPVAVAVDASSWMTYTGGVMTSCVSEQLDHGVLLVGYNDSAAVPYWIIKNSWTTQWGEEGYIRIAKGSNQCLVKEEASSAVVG
# T1 sequence (P08684 whole entry): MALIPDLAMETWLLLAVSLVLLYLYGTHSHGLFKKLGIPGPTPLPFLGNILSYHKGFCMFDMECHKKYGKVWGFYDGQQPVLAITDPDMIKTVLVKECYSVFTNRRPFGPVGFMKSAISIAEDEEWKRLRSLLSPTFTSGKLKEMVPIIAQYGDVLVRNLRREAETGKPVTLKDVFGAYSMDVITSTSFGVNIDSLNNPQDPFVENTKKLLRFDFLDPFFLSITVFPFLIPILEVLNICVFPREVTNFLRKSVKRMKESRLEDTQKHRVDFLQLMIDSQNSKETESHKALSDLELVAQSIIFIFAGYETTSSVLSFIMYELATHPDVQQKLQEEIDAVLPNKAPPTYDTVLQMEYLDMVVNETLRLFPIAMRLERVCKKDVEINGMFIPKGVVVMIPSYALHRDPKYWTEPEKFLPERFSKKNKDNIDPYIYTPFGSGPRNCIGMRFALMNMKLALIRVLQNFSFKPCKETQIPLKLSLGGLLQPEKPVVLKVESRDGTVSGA
# T2 sequence (P10605 80-333 limits assumed): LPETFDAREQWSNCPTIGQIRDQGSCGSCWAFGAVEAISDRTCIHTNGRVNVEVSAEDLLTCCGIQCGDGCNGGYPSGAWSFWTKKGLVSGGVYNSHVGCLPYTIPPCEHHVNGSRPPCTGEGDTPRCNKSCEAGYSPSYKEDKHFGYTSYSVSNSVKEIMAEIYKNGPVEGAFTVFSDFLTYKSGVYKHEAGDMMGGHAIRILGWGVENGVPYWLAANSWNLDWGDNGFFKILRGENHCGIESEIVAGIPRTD
# CYP2D6, sequence (P10635 whole entry): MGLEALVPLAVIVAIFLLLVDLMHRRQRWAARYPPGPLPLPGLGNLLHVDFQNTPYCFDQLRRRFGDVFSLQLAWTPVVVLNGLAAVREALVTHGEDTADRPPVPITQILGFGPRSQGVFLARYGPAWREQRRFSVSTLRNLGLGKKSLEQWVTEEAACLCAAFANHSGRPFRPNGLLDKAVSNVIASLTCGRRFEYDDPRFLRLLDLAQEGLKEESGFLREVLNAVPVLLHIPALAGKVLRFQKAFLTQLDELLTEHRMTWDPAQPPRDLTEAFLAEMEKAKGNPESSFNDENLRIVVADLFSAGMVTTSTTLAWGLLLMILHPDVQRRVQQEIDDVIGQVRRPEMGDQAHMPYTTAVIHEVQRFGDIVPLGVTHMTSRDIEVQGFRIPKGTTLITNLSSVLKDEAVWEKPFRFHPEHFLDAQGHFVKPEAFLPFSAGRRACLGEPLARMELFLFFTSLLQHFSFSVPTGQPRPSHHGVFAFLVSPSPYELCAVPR
# CYP2C9, sequence (P11712 whole entry): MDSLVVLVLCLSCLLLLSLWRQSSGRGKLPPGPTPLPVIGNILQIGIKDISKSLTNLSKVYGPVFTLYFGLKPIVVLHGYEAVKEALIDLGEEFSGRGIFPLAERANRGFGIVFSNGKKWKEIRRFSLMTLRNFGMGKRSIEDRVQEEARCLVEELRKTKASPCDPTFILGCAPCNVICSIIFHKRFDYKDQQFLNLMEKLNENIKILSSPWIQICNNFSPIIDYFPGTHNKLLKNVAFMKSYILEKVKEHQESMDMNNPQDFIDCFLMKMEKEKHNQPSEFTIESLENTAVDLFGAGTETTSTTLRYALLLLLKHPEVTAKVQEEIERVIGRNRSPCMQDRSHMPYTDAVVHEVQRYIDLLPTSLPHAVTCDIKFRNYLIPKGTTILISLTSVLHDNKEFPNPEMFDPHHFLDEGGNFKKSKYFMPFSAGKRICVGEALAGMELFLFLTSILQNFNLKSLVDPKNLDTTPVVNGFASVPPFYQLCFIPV
Kd (TcCYP51),kinact/KI (cruzain),IC50 (cruzain),Compound,"T. cruzi growth inhibition MTC [2, 11]",EC90 [8],effect on sterol (lipid) composition of intracellular T. cruzi [9],other results
> 2000 nM,118000 M⁻¹ s⁻¹,,"CN1CCN(C(=O)N[C@@H](Cc2ccccc2)C(=O)N[C@H](/C=C/S(=O)(=O)c2ccccc2)CCc2ccccc2)CC1 [Compound 1, reference compound]",8 µM,100 nM,little effect on sterol composition,"mechanism of CYP3A4 inhibition (CYP3A4 [1]): irreversible inhibition; IC50 (CYP3A4 [1]; pre-incubation with NADPH): 5.9 nM; IC50 (CYP3A4 [1]; pre-incubation without NADPH): 1080 nM; IC50 (CYP3A4 [3]): 1700 nM; competition for labeling of the ≈35 kDa band by probe 9 [4, 12]: successfully blocked labeling; type of CYP3A4 inhibition (CYP3A4 [5]): mechanism-based (irreversible) inhibitor of CYP3A4; IC50 (CYP2C19 [6]): 7600 nM; IC50 (CYP1A2): 24000 nM; mechanism of CYP2C19 inhibition (CYP2C19 [7]): reversible inhibitors; IC50 (CYP2C19 [7]; pre-incubation with NADPH): 5540 nM; IC50 (CYP2C19 [7]; pre-incubation without NADPH): 8220 nM; IC50 (CYP2D6): 26000 nM; TcCYP51 cellular activity (Y/N) ([9]; affects ergosterol biosynthesis at 1.6 μM): N (1.6 μM); P-glycoprotein (P-gp) substrate (P-glycoprotein (P-gp)): substrate of the drug transporter P-glycoprotein (P-gp); IC50 (CYP2C9): 32000 nM"
75 ± 26 nM,,> 50000 nM,Cc1ccc(C[C@H](NC(=O)c2ccncc2)C(=O)N[C@H](C)c2ccccc2)cc1 [Compound 13],,3900 nM,,T. cruzi growth inhibition MTC ([2]; read at day 12 following 7 days treatment): 1^f μM
620 ± 260 nM,,> 50000 nM,CNC(=O)[C@H](Cc1ccc(C)cc1)NC(=O)c1ccncc1 [Compound 12],>10 µM,> 10000 nM,,antitrypanosomal effect ([2]; highest concentration examined (10 μM)): no antitrypanosomal effect
,,,"CC1CCC(C(=O)N[C@H](Cc2c[nH]c3ccccc23)C(=O)Nc2ccncc2)CC1 (stereo partly drawn) [Compound 5, reference compound]",≤10^d μM,,,TcCYP51 cellular activity (Y/N) ([9]; affects ergosterol biosynthesis at 5.0 μM): Y (5.0 μM)
,81500 M⁻¹ s⁻¹,,C#CCN1CCN(C(=O)N[C@@H](Cc2ccccc2)C(=O)N[C@H](/C=C/S(=O)(=O)c2ccccc2)CCc2ccccc2)CC1 [Compound 9],,17 nM,,T. cruzi growth inhibition MTC ([2]; performed in BESM host cell rather than J774 cells): 5^e μM
> 2000 nM,16000 M⁻¹ s⁻¹,,Cc1ccc(C[C@H](NC(=O)c2ccccn2)C(=O)N[C@H](/C=C/S(=O)(=O)c2ccccc2)CCc2ccccc2)cc1.O=C(O)C(F)(F)F [Compound 3],8 µM,1850 nM,no significant change in lipid composition,"competition for labeling of the ≈35 kDa band by probe 9 [4, 12]: successfully blocked labeling; TcCYP51 cellular activity (Y/N) [9, 13]: N (2.0 μM)"
,,,"CC[C@@H]([C@H](C)O)n1ncn(-c2ccc(N3CCN(c4ccc(OC[C@@H]5CO[C@@](Cn6cncn6)(c6ccc(F)cc6F)C5)cc4)CC3)cc2)c1=O [POSA, posaconazole, reference compound]",0.003 µM,2700 nM,increase in the relative abundance of TcCYP51 substrates lanosterol (f) and eburicol (h),"TcCYP51 cellular activity (Y/N) [9, 14]: Y (0.1 μM)"
> 2000 nM,,> 50000 nM,Cc1ccc(C[C@H](NC(=O)c2ccccn2)C(=O)N[C@@H](CCc2ccccc2)CCS(=O)(=O)c2ccccc2)cc1 [Compound 7],>10 µM,> 10000 nM,no significant change in lipid composition,"TcCYP51 cellular activity (Y/N) [9, 14]: N (0.1 μM)"
,120000 M⁻¹ s⁻¹,,O=C(N[C@@H](Cc1ccccc1)C(=O)N[C@H](/C=C/S(=O)(=O)c1ccccc1)CCc1ccccc1)c1ccccn1 [Compound 2],10 µM,,,
≤ 5 nM,67300 M⁻¹ s⁻¹,,"Cc1ccc(C[C@H](NC(=O)c2ccncc2)C(=O)N[C@H](/C=C/S(=O)(=O)c2ccccc2)CCc2ccccc2)cc1 [Compound 4, N-[(2S)-1-[[(E,3S)-1-(benzenesulfonyl)-5-phenylpent-1-en-3-yl]amino]-3-(4-methylphenyl)-1-oxopropan-2-yl]pyridine-4-carboxamide]",0.6 µM,100 nM,effects very similar to those observed in posaconazole treated parasites,"mechanism of CYP3A4 inhibition (CYP3A4 [1]): reversible inhibition; IC50 (CYP3A4 [1]; pre-incubation with NADPH): 117 nM; IC50 (CYP3A4 [1]; pre-incubation without NADPH): 46 nM; fold more potent than 1 in the MTC assay ([2]; relative to compound 1): about 10 fold; IC50 (CYP3A4 [3]): 800 nM; competition for labeling of the ≈35 kDa band by probe 9 [4, 12]: successfully blocked labeling; IC50 (CYP2C19 [6]): 3400 nM; IC50 (CYP1A2): 22000 nM; mechanism of CYP2C19 inhibition (CYP2C19 [7]): reversible inhibitors; IC50 (CYP2C19 [7]; pre-incubation with NADPH): 300 nM; IC50 (CYP2C19 [7]; pre-incubation without NADPH): 170 nM; IC50 [10]: ~7000 nM; IC50 (CYP2D6): 2700 nM; TcCYP51 cellular activity (Y/N) ([9]; affects ergosterol biosynthesis at 0.2 μM): Y (0.2 μM); IC50 (CYP2C9): 5500 nM"
,,,"O=C(Cn1ccnc1[N+](=O)[O-])NCc1ccccc1 [BNZ, benzindazole, reference compound]",10 µM,7200 nM,,
≤ 5 nM,,> 50000 nM,Cc1ccc(C[C@H](NC(=O)c2ccncc2)C(=O)N[C@@H](CCc2ccccc2)CCS(=O)(=O)c2ccccc2)cc1 [Compound 8],0.25 µM,110 nM,effects very similar to those observed in posaconazole treated parasites,"times more potent than 4 in the MTC assay ([2]; relative to compound 4): 2–4 times; competition for labeling of the ≈35 kDa band by probe 9 [4, 15]: did not compete for labeling by 9; TcCYP51 cellular activity (Y/N) [9, 14]: Y (0.1 μM)"
> 2000 nM,,> 50000 nM,CN1CCN(C(=O)N[C@@H](Cc2ccccc2)C(=O)N[C@@H](CCc2ccccc2)CCS(=O)(=O)c2ccccc2)CC1 [Compound 6],>10 µM,> 10000 nM,no significant change in lipid composition,"competition for labeling of the ≈35 kDa band by probe 9 [4, 15]: did not compete for labeling by 9; TcCYP51 cellular activity (Y/N) [9, 13]: N (2.0 μM)"

# From article PMC3566858 (Beilstein Journal of Organic Chemistry, 2013)
